The values that follow are results of earlier work, collected in article PMC6929995, “Rod-shape theranostic nanoparticles facilitate antiretroviral drug biodistribution and activity in human immunodeficiency virus susceptible cells and tissues” (Theranostics, 2020).

The data set deals with HIV-1.

SMILES strings stand for the structures.

With `Cc1cc(/C=C/C#N)cc(C)c1Nc1ccnc(Nc2ccc(C#N)cc2)n1` [RPV, rilpivirine], the potency entry is “sub-nanomolar range”.
